Laboratory results published in US8846947B2, “Benzimidazoles and related analogs as sirtuin modulators” (GlaxoSmithKline LLC, priority 2008, dated 2014).
Like-named read-outs stand apart in the source and are kept apart here.

Target: T1, SIRT1 (Homo sapiens, UniProt Q96EB6)
T1 sequence (Q96EB6 1-747): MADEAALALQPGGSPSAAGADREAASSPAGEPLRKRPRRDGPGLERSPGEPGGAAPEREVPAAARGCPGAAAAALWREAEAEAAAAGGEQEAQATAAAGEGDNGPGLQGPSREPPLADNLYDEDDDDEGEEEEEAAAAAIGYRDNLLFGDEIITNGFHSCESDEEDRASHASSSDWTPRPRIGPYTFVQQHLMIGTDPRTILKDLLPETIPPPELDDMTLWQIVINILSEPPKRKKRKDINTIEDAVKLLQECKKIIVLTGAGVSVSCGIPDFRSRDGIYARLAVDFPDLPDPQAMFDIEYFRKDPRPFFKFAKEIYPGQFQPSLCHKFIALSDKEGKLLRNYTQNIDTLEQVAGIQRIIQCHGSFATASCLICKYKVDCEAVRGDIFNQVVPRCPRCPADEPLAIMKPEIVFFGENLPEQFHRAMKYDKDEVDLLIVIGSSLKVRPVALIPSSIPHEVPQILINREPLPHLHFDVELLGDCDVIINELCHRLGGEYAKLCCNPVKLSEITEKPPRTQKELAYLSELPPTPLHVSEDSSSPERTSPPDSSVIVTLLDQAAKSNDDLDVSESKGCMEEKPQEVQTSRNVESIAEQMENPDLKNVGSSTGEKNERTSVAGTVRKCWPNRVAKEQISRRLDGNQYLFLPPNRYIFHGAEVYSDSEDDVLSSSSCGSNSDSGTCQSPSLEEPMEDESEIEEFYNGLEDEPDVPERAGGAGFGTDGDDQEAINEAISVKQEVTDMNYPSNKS
Experiment: Mass spectrometry based SIRT1 deacetylase activation assay (acetylated p53-derived peptide substrate)
Format: biochemical

[1] = 0.5 μM peptide substrate, 120 μM βNAD+, 10 nM SIRT1, 25 minutes at 25° C.
[2] = 0.5 μM peptide substrate, 120 μM βNAD+, 10 nM SIRT1, 25 min at 25° C.
[3] = 0.5 μM peptide substrate, 120 μM βNAD+, 10 nM SIRT1, 25 min at 25° C., read-out: EC1.5

| SMILES | EC1.5 [1] | Fold Act. (percent maximum fold activation) [1] | Fold Act. (percent maximum fold activation) [2] | EC1.5 [3] | other results |
| --- | --- | --- | --- | --- | --- |
| O=C(Nc1nccs1)c1cccc2[nH]c(-c3ccc4ccccc4c3)nc12 [Compound 228] |  |  |  |  | EC1.5: B (EC1.5 1-25 uM); Fold Act. (percent maximum fold activation): A (Fold activation >200%) |
| Cc1cnc(NC(=O)c2cccc3[nH]c(-c4ccc5c(c4)NC(=O)CO5)nc23)s1 [Compound 534] |  |  | A (Fold activation >200%) | < 1000 nM |  |
| CC1(C)Cc2cc(-c3nc4c(C(=O)Nc5cccnc5)cccc4[nH]3)ccc2O1 [Compound 499] |  |  | A (Fold activation >200%) | 1000 to 25000 nM |  |
| O=C(Nc1cccnc1)c1cccc2[nH]c(-c3ccnn3-c3ccccc3)nc12 [Compound 311] |  |  |  |  | EC1.5: B (EC1.5 1-25 uM); Fold Act. (percent maximum fold activation): A (Fold activation >200%) |
| CCCN1CCCc2ccc(-c3nc4c(C(=O)Nc5nccs5)cccc4[nH]3)cc21 [Compound 425] |  |  | A (Fold activation >200%) | 1000 to 25000 nM |  |
| Cc1ncccc1-c1nc2c(C(=O)Nc3nc(CN4CCOCC4)cs3)cccc2[nH]1 [Compound 842] | A (EC1.5<1.0 uM) | A (Fold activation >200%) |  |  |  |
| Cc1cnc(NC(=O)c2cccc3[nH]c(-c4ccc(F)cc4C(F)F)nc23)s1 [Compound 560] |  |  | A (Fold activation >200%) | < 1000 nM |  |
| O=C(Nc1nccs1)c1cccc2nc(-c3ccc(N4CCCC4)cc3C(F)F)[nH]c12 [Compound 764] | A (EC1.5<1.0 uM) | A (Fold activation >200%) |  |  |  |
| O=C(Nc1ccccn1)c1cccc2[nH]c(-c3cc(F)cc(Cl)c3OCCN3CCOCC3)nc12 [Compound 544] |  |  | B (Fold Activation <200%) | 1000 to 25000 nM |  |
| O=C(Nc1nccs1)c1cc(F)cc2nc(-c3ccccc3C(F)F)[nH]c12 [Compound 832] | A (EC1.5<1.0 uM) | A (Fold activation >200%) |  |  |  |
| O=C(Nc1ccccn1)c1cc(N2CCOCC2)cc2[nH]c(-c3ccc(Cl)cc3C(F)(F)F)nc12 [Compound 641] | A (EC1.5<1.0 uM) | A (Fold activation >200%) |  |  |  |
| CC(C)N1CCN(CCOc2ccccc2-c2nc3c(C(=O)Nc4nccs4)cccc3[nH]2)CC1 [Compound 485] |  |  | A (Fold activation >200%) | 1000 to 25000 nM |  |
| CCCN1CCc2cc(-c3nc4c(C(=O)Nc5cccnc5)cccc4[nH]3)ccc21 [Compound 569] |  |  | A (Fold activation >200%) | 1000 to 25000 nM |  |
| O=C(Nc1cccc(OC[C@H](O)CO)c1)c1cccc2[nH]c(-c3ccc(N4CC[C@H](F)C4)cc3C(F)(F)F)nc12 [Compound 779] | A (EC1.5<1.0 uM) | A (Fold activation >200%) |  |  |  |
| Cc1cnc(NC(=O)c2cncc3[nH]c(-c4ccc(OC[C@@H](O)CO)cc4C(F)(F)F)nc23)s1 [Compound 759] | A (EC1.5<1.0 uM) | A (Fold activation >200%) |  |  |  |
| O=C(Nc1ccccn1)c1cccc2[nH]c(-c3ccc(N4CCOCC4)cc3C(F)F)nc12 [Compound 553] |  |  | A (Fold activation >200%) | < 1000 nM |  |
| CN1CCOc2cc(-c3nc4c(C(=O)Nc5cccnn5)cccc4[nH]3)cnc21 [Compound 457] |  |  | A (Fold activation >200%) | < 1000 nM |  |
| O=C(Nc1cccnn1)c1cccc2[nH]c(-c3cccc(N4CCOCC4)c3)nc12 [Compound 470] |  |  | A (Fold activation >200%) | 1000 to 25000 nM |  |
| Cc1csc(-c2nc3c(C(=O)Nc4nccs4)cccc3[nH]2)n1 [Compound 292] |  |  |  |  | EC1.5: A (EC1.5<1.0 uM); Fold Act. (percent maximum fold activation): A (Fold activation >200%) |
| Cc1nc(NC(=O)c2cccc3[nH]c(-c4ccc(F)cc4C(F)(F)F)nc23)sc1C [Compound 358] |  |  |  |  | EC1.5: A (EC1.5<1.0 uM); Fold Act. (percent maximum fold activation): A (Fold activation >200%) |
| O=C(Nc1cccnn1)c1cc(N2CCOCC2)cc2[nH]c(-c3cc(F)ccc3C(F)F)nc12 [Compound 770] | A (EC1.5<1.0 uM) | A (Fold activation >200%) |  |  |  |
| c1ccc(-n2nccc2-c2nc3c(NCc4cccnc4)cccc3[nH]2)cc1 [Compound 671] | C (EC1.5 >25 uM) | B (Fold Activation <200%) |  |  |  |
| Cc1cc(NC(=O)c2cccc3[nH]c(-c4ccc(F)cc4C(F)(F)F)nc23)n(C)n1 [Compound 375] |  |  |  |  | EC1.5: A (EC1.5<1.0 uM); Fold Act. (percent maximum fold activation): A (Fold activation >200%) |
| CCCN1CCc2cc(-c3nc4c(C(=O)Nc5ncc(C)s5)cccc4[nH]3)ccc21 [Compound 570] |  |  | B (Fold Activation <200%) | 1000 to 25000 nM |  |
| Cc1nc(C)c(-c2nc3c(C(=O)Nc4ccccn4)cccc3[nH]2)s1 [Compound 320] |  |  |  |  | EC1.5: B (EC1.5 1-25 uM); Fold Act. (percent maximum fold activation): A (Fold activation >200%) |
| O=C(Nc1cccc(CN2CCOCC2)n1)c1cccc2[nH]c(-c3ccc(Cl)cc3C(F)F)nc12 [Compound 819] | A (EC1.5<1.0 uM) | A (Fold activation >200%) |  |  |  |

Second part, led by results:

| EC1.5 [1] | Fold Act. (percent maximum fold activation) [1] | Fold Act. (percent maximum fold activation) [2] | EC1.5 [3] | SMILES | other results |
| --- | --- | --- | --- | --- | --- |
| A (EC1.5<1.0 uM) | A (Fold activation >200%) |  |  | O=C(Nc1nccs1)c1cccc2[nH]c(-c3ccc(OC[C@@H](O)CO)cc3C(F)(F)F)nc12 [Compound 745] |  |
|  |  | A (Fold activation >200%) | 1000 to 25000 nM | O=C(NCc1ccccn1)c1cccc2[nH]c(-c3ccccc3C(F)(F)F)nc12 [Compound 420] |  |
|  |  | B (Fold Activation <200%) | > 25000 nM | O=C(NC1CCOCC1)c1cccc2[nH]c(-c3ccccc3C(F)(F)F)nc12 [Compound 421] |  |
|  |  | B (Fold Activation <200%) | 1000 to 25000 nM | O=C(Nc1nccs1)c1cccc2[nH]c(-c3ccccc3OCCN3CC[C@@H](F)C3)nc12 [Compound 507] |  |
|  |  | A (Fold activation >200%) | 1000 to 25000 nM | O=C(Nc1ccccn1)c1cccc2[nH]c(-c3ccccc3OCCN3CCNCC3)nc12 [Compound 484] |  |
| A (EC1.5<1.0 uM) | A (Fold activation >200%) |  |  | O=C(Nc1ccc(CN2CCOCC2)cn1)c1cccc2[nH]c(-c3ccc(Cl)cc3C(F)(F)F)nc12 [Compound 676] |  |
| A (EC1.5<1.0 uM) | A (Fold activation >200%) |  |  | O=C(Nc1ccccn1)c1cccc2[nH]c(-c3cnccc3C(F)(F)F)nc12 [Compound 704] |  |
| A (EC1.5<1.0 uM) | A (Fold activation >200%) |  |  | O=C(Nc1cccc(OC[C@H](O)CO)c1)c1cncc2[nH]c(-c3ccccc3C(F)(F)F)nc12 [Compound 748] |  |
| B (EC1.5 1-25 uM) | A (Fold activation >200%) |  |  | CC(C)(C)NCCOc1ccccc1-c1nc2c(C(=O)Nc3ccccn3)cccc2[nH]1 [Compound 616] |  |
|  |  | A (Fold activation >200%) | < 1000 nM | O=C(Nc1ccc(OCC(O)CO)cc1)c1cccc2[nH]c(-c3cc(F)ccc3C(F)(F)F)nc12 (centres unmarked) [Compound 494] |  |
|  |  | B (Fold Activation <200%) | > 25000 nM | O=C(NC1CCOCC1)c1cccc2[nH]c(-c3cc(F)ccc3C(F)(F)F)nc12 [Compound 437] |  |
